Measurements: PubChem BioAssay AID256 (DTP/NCI, 2004)
“And” between values parts separate entries of the source, which are not always exact repeats. Equal entries are not always repeated. Toxic doses and inconclusive results are not listed.

Tested on: CD2F1 mice, L1210 leukemia ip, survival T/C
Assay: NCI In Vivo Anticancer Drug Screen. Data for tumor model L1210 Leukemia (intraperitoneal) in CD2F1 (CDF1) mice
Conditions: higher = longer survival
In short: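 Implant tumor; dose compound or vehicle; measure endpoint in both groups; report treated divided by control.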

[1] = endpoint: mean survival time, dose: 100.0 mg/kg/injection, schedule: Q01DX009 (ip), vehicle: saline
[2] = endpoint: mean survival time, dose: 200.0 mg/kg/injection, schedule: Q01DX009 (ip), vehicle: saline
[3] = endpoint: mean survival time, dose: 50.0 mg/kg/injection, schedule: Q01DX009 (ip), vehicle: saline with Tween-80
[4] = endpoint: mean survival time, dose: 100.0 mg/kg/injection, schedule: Q01DX009 (ip), vehicle: saline with Tween-80
[5] = endpoint: mean survival time, dose: 4.0 mg/kg/injection, schedule: Q01DX009 (ip), vehicle: saline
[6] = endpoint: mean survival time, dose: 100.0 mg/kg/injection, schedule: Q04DX003 (ip), vehicle: saline with Tween-80
[7] = endpoint: mean survival time, dose: 200.0 mg/kg/injection, schedule: Q04DX003 (ip), vehicle: saline with Tween-80
[8] = endpoint: mean survival time, dose: 400.0 mg/kg/injection, schedule: Q04DX003 (ip), vehicle: saline with Tween-80
[9] = endpoint: mean survival time, dose: 100.0 mg/kg/injection, schedule: Q04DX002 (ip), vehicle: saline with Tween-80

SMILES: Cc1cn(C2CC3[O][Sn]([c]4ccccc4)([c]4ccccc4)[O]CC3O2)c(=O)[nH]c1=O (configuration not stated)
- T/C (endpoint: mean survival time, dose: 0.75 mg/kg/injection, schedule: Q01DX005 (ip), vehicle: other): 90 % of control
- T/C (endpoint: mean survival time, dose: 0.78 mg/kg/injection, schedule: Q01DX005 (ip), vehicle: other): 96 % of control and 100 % of control
- T/C (endpoint: mean survival time, dose: 1.5 mg/kg/injection, schedule: Q01DX005 (ip), vehicle: other): 90 % of control
- T/C (endpoint: mean survival time, dose: 1.5 mg/kg/injection, schedule: Q01DX005 (ip), vehicle: saline): 89 % of control
- T/C (endpoint: mean survival time, dose: 3.0 mg/kg/injection, schedule: Q01DX005 (ip), vehicle: other): 95 % of control
- T/C (endpoint: mean survival time, dose: 3.0 mg/kg/injection, schedule: Q01DX005 (ip), vehicle: saline): 89 % of control
- T/C (endpoint: mean survival time, dose: 6.0 mg/kg/injection, schedule: Q01DX005 (ip), vehicle: saline): 97 % of control
- T/C (endpoint: mean survival time, dose: 6.25 mg/kg/injection, schedule: Q01DX005 (ip), vehicle: other): 203 % of control and 102 % of control and 105 % of control
- T/C (endpoint: mean survival time, dose: 6.25 mg/kg/injection, schedule: Q01DX009 (ip), vehicle: saline): 109 % of control
- T/C (endpoint: mean survival time, dose: 12.0 mg/kg/injection, schedule: Q01DX005 (ip), vehicle: other): 100 % of control
- T/C (endpoint: mean survival time, dose: 12.0 mg/kg/injection, schedule: Q01DX005 (ip), vehicle: saline): 104 % of control
- T/C (endpoint: mean survival time, dose: 12.5 mg/kg/injection, schedule: Q01DX009 (ip), vehicle: saline): 107 % of control
- T/C (endpoint: mean survival time, dose: 24.0 mg/kg/injection, schedule: Q01DX005 (ip), vehicle: other): 104 % of control
- T/C (endpoint: mean survival time, dose: 24.0 mg/kg/injection, schedule: Q01DX005 (ip), vehicle: saline): 103 % of control
- T/C (endpoint: mean survival time, dose: 25.0 mg/kg/injection, schedule: Q01DX009 (ip), vehicle: saline): 113 % of control
- T/C (endpoint: mean survival time, dose: 50.0 mg/kg/injection, schedule: Q01DX009 (ip), vehicle: saline): 110 % of control
- T/C [1]: 103 % of control
- T/C [2]: 115 % of control

SMILES: O=C1Nc2ccccc2/C1=C\c1ccccc1O
- T/C (endpoint: mean survival time, dose: 50.0 mg/kg/injection, schedule: Q01DX009 (ip), vehicle: Klucel (hydroxypropylcellulose) (HPC)): 93 % of control
- T/C (endpoint: mean survival time, dose: 100.0 mg/kg/injection, schedule: Q01DX009 (ip), vehicle: Klucel (hydroxypropylcellulose) (HPC)): 87 % of control
- T/C (endpoint: mean survival time, dose: 200.0 mg/kg/injection, schedule: Q01DX009 (ip), vehicle: Klucel (hydroxypropylcellulose) (HPC)): 96 % of control
- T/C (endpoint: mean survival time, dose: 400.0 mg/kg/injection, schedule: Q01DX009 (ip), vehicle: Klucel (hydroxypropylcellulose) (HPC)): 96 % of control

SMILES: CCOC(=O)C(=C=[N-])[n+]1ccc(C)cc1
- T/C (endpoint: mean survival time, dose: 6.25 mg/kg/injection, schedule: Q01DX001 (ip), vehicle: saline sonified): 101 % of control
- T/C (endpoint: mean survival time, dose: 6.25 mg/kg/injection, schedule: Q01DX009 (ip), vehicle: saline sonified): 94 % of control
- T/C (endpoint: mean survival time, dose: 12.5 mg/kg/injection, schedule: Q01DX001 (ip), vehicle: saline sonified): 103 % of control
- T/C (endpoint: mean survival time, dose: 12.5 mg/kg/injection, schedule: Q01DX009 (ip), vehicle: saline sonified): 94 % of control
- T/C (endpoint: mean survival time, dose: 25.0 mg/kg/injection, schedule: Q01DX001 (ip), vehicle: saline sonified): 103 % of control
- T/C (endpoint: mean survival time, dose: 25.0 mg/kg/injection, schedule: Q01DX009 (ip), vehicle: saline sonified): 89 % of control

SMILES: C/C=C\c1ccc(OCCOC(=O)Nc2cc(Cl)c(OC)cc2OC)c(OC)c1
- T/C [3]: 90 % of control
- T/C [4]: 90 % of control

SMILES: CCCCCCCCC(=O)N1CCN(C(=O)CCCCCCCC)C1
- T/C (endpoint: mean survival time, dose: 75.0 mg/kg/injection, schedule: Q04DX003 (ip), vehicle: saline): 94 % of control
- T/C (endpoint: mean survival time, dose: 150.0 mg/kg/injection, schedule: Q04DX003 (ip), vehicle: saline): 97 % of control
- T/C (endpoint: mean survival time, dose: 300.0 mg/kg/injection, schedule: Q04DX003 (ip), vehicle: saline): 95 % of control

SMILES: C=CC1CC2C=CC1C2 (configuration not stated) (tested in a mixture with another compound)
- T/C (endpoint: mean survival time, dose: 80.5 mg/kg/injection, schedule: Q01DX009 (ip), vehicle: saline with Tween-80): 106 % of control
- T/C (endpoint: mean survival time, dose: 161.0 mg/kg/injection, schedule: Q01DX009 (ip), vehicle: saline with Tween-80): 90 % of control

SMILES: O=C1C=Cc2ccccc2C1=O
- T/C (endpoint: mean survival time, dose: 0.63 mg/kg/injection, schedule: Q01DX009 (ip), vehicle: saline): 98 % of control
- T/C (endpoint: mean survival time, dose: 1.0 mg/kg/injection, schedule: Q01DX009 (ip), vehicle: saline): 105 % of control
- T/C (endpoint: mean survival time, dose: 1.25 mg/kg/injection, schedule: Q01DX009 (ip), vehicle: saline): 104 % of control
- T/C (endpoint: mean survival time, dose: 2.0 mg/kg/injection, schedule: Q01DX009 (ip), vehicle: saline): 98 % of control
- T/C (endpoint: mean survival time, dose: 2.5 mg/kg/injection, schedule: Q01DX009 (ip), vehicle: saline with Tween-80): 110 % of control
- T/C (endpoint: mean survival time, dose: 2.5 mg/kg/injection, schedule: Q01DX009 (ip), vehicle: saline): 98 % of control
- T/C [5]: 88 % of control

SMILES: CCN=C(NCC)S(=O)O
- T/C [1]: 90 % of control
- T/C [2]: 97 % of control
- T/C (endpoint: mean survival time, dose: 400.0 mg/kg/injection, schedule: Q01DX009 (ip), vehicle: saline): 103 % of control

SMILES: CC(=O)C12CC3CC1C2C3
- T/C (endpoint: mean survival time, dose: 75.0 mg/kg/injection, schedule: Q01DX001 (ip), vehicle: saline): 101 % of control
- T/C (endpoint: mean survival time, dose: 150.0 mg/kg/injection, schedule: Q01DX001 (ip), vehicle: saline): 98 % of control
- T/C (endpoint: mean survival time, dose: 300.0 mg/kg/injection, schedule: Q01DX001 (ip), vehicle: saline): 93 % of control

SMILES: COC1=C(NC(C)=O)C(=O)c2nc(-c3nc(C(=O)O)c(C)c(-c4ccc(OC)c(OC)c4O)c3N)ccc2C1=O
- T/C (endpoint: median survival time, dose: 6.25 mg/kg/injection, schedule: Q01DX009 (ip), vehicle: Klucel (hydroxypropylcellulose) (HPC)): 106 % of control
- T/C (endpoint: median survival time, dose: 12.5 mg/kg/injection, schedule: Q01DX009 (ip), vehicle: Klucel (hydroxypropylcellulose) (HPC)): 108 % of control
- T/C (endpoint: median survival time, dose: 25.0 mg/kg/injection, schedule: Q01DX009 (ip), vehicle: Klucel (hydroxypropylcellulose) (HPC)): 104 % of control
- T/C (endpoint: median survival time, dose: 50.0 mg/kg/injection, schedule: Q01DX009 (ip), vehicle: Klucel (hydroxypropylcellulose) (HPC)): 107 % of control
- T/C (endpoint: median survival time, dose: 100.0 mg/kg/injection, schedule: Q01DX009 (ip), vehicle: Klucel (hydroxypropylcellulose) (HPC)): 109 % of control
- T/C (endpoint: median survival time, dose: 200.0 mg/kg/injection, schedule: Q01DX009 (ip), vehicle: Klucel (hydroxypropylcellulose) (HPC)): 109 % of control

SMILES: O=[N+]([O-])c1cnc(C2=C(O)c3ccccc3CC2)s1
- T/C (endpoint: mean survival time, dose: 25.0 mg/kg/injection, schedule: Q01DX001 (ip), vehicle: saline with Tween-80): 96 % of control
- T/C (endpoint: mean survival time, dose: 50.0 mg/kg/injection, schedule: Q01DX001 (ip), vehicle: saline with Tween-80): 96 % of control
- T/C (endpoint: mean survival time, dose: 100.0 mg/kg/injection, schedule: Q01DX001 (ip), vehicle: saline with Tween-80): 100 % of control

SMILES: CCCCNC(=S)S
- T/C [4]: 100 % of control
- T/C [6]: 100 % of control
- T/C (endpoint: mean survival time, dose: 200.0 mg/kg/injection, schedule: Q01DX009 (ip), vehicle: saline with Tween-80): 102 % of control
- T/C [7]: 92 % of control
- T/C (endpoint: mean survival time, dose: 400.0 mg/kg/injection, schedule: Q01DX009 (ip), vehicle: saline with Tween-80): 100 % of control
- T/C [8]: 94 % of control

SMILES: CC(Cc1ccccc1)NC(C#N)c1ccccc1 (configuration not stated)
- T/C (endpoint: mean survival time, dose: 12.5 mg/kg/injection, schedule: Q01DX009 (ip), vehicle: saline with Tween-80): 102 % of control
- T/C (endpoint: mean survival time, dose: 25.0 mg/kg/injection, schedule: Q01DX009 (ip), vehicle: saline with Tween-80): 98 % of control
- T/C [3]: 101 % of control

SMILES: O=C(COc1ccccc1[N+](=O)[O-])CN1C(=O)c2ccccc2C1=O
- T/C [9]: 91 % of control
- T/C (endpoint: mean survival time, dose: 200.0 mg/kg/injection, schedule: Q04DX002 (ip), vehicle: saline with Tween-80): 91 % of control
- T/C (endpoint: mean survival time, dose: 400.0 mg/kg/injection, schedule: Q04DX002 (ip), vehicle: saline with Tween-80): 91 % of control

SMILES: CC(C)c1ccc(P(c2ccc(C(C)C)cc2)c2ccc(C(C)C)cc2)cc1
- T/C (endpoint: mean survival time, dose: 25.0 mg/kg/injection, schedule: Q04DX002 (ip), vehicle: saline with Tween-80): 103 % of control
- T/C (endpoint: mean survival time, dose: 50.0 mg/kg/injection, schedule: Q04DX002 (ip), vehicle: saline with Tween-80): 88 % of control
- T/C [9]: 88 % of control

SMILES: O=C1C=CC(=O)N1c1cccc(N2C(=O)C=CC2=O)c1
- T/C [5]: 96 % of control
- T/C (endpoint: mean survival time, dose: 8.0 mg/kg/injection, schedule: Q01DX009 (ip), vehicle: saline): 106 % of control

SMILES: O=C(/C=C\c1ccccc1)C(=O)/C=C/c1ccccc1
- T/C [6]: 94 % of control
- T/C [7]: 93 % of control
- T/C [8]: 95 % of control

SMILES: CCOC(=O)C[Si](C)(C)C
- T/C (endpoint: mean survival time, dose: 25.0 mg/kg/injection, schedule: Q01DX005 (ip), vehicle: water): 101 % of control
- T/C (endpoint: mean survival time, dose: 50.0 mg/kg/injection, schedule: Q01DX005 (ip), vehicle: water): 104 % of control
- T/C (endpoint: mean survival time, dose: 100.0 mg/kg/injection, schedule: Q01DX005 (ip), vehicle: water): 101 % of control
- T/C (endpoint: mean survival time, dose: 200.0 mg/kg/injection, schedule: Q01DX005 (ip), vehicle: water): 104 % of control
- T/C (endpoint: mean survival time, dose: 400.0 mg/kg/injection, schedule: Q01DX005 (ip), vehicle: water): 101 % of control
